This note sets out measurements from patent US9913843B2, “Protein kinase C inhibitors and uses thereof” (Rigel Pharmaceuticals, Inc., priority 2012, dated 2018).

Read-outs that look alike come from different tables or passages of the source. Bounds are passed on as bounds.

This assay relates to PKC mediated IL-2 production in human primary T cells. As to the kind of experiment: IL-2 ELISA, human primary T cell, anti CD3+CD28+ (whole cell functional assay for PKC mediated IL-2 production). It is filed as cell-based. The essentials:
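Primary human T cells (PBMC-derived, expanded on plate-bound anti-CD3/CD28 with IL-2, then IL-2-washed) were pre-incubated 1 h at 37 °C with compound, then stimulated on 1 μg/ml anti-CD3 plus 5 μg/ml anti-CD28. After 24 h at 37 °C, secreted IL-2 was measured by ELISA; counter assay used 0.5 ng/ml PMA plus 0.1 μM ionomycin (final).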

The mark [1] stands for this setting: 24 h, human primary T cells stimulated with anti-CD3 + anti-CD28, IL-2 by ELISA, read-out: IC50 for blocking IL-2 production.
Where [2] appears, read: human primary T cells stimulated with anti-CD3 + anti-CD28, 24 h, IL-2 by ELISA, 8 pt, read-out: IL2 ELISA, Human primary T cell, anti-CD3 + CD28, 8 pt (IC50).

As for `Cn1nnn(-c2cc(Nc3ncc(C#N)c(NC[C@@H]4CCCN5CCCC[C@H]45)n3)c(F)cc2OCCO)c1=O` [Compound 135, 2-((2-fluoro-4-(2-hydroxyethoxy)-5-(4-methyl-5-oxo-4,5-dihydro-1H-tetrazol-1-yl)phenyl)amino)-4-((((1S,9aR)-octahydro-2H-quinolizin-1-yl)methyl)amino)pyrimidine-5-carbonitrile], the IC50 – broadly, the midpoint of a concentration-inhibition curve – under setting [1] was less than 30 µM.

`CC(O)COc1cc(F)c(Nc2ncc(C#N)c(NC[C@@H]3CCCN4CCCC[C@H]34)n2)cc1-n1nnn(C)c1=O` (stereo partly drawn) [Compound 136, 2-((2-fluoro-4-(2-hydroxypropoxy)-5-(4-methyl-5-oxo-4,5-dihydro-1H-tetrazol-1-yl)phenyl)amino)-4-((((1S,9aR)-octahydro-2H-quinolizin-1-yl)methyl)amino)pyrimidine-5-carbonitrile]: the IC50 was less than 30 µM under setting [1] and 0.176 µM under setting [2].

`[2H]C([2H])(O)C([2H])([2H])Oc1cc(F)c(Nc2ncc(C#N)c(NC[C@@H]3CCCN4CCCC[C@H]34)n2)cc1-n1nnn(C)c1=O` [Compound 137, 2-((2-fluoro-4-(2-hydroxyethoxy-1,1,2,2-d4)-5-(4-methyl-5-oxo-4,5-dihydro-1H-tetrazol-1-yl)phenyl)amino)-4-((((1S,9aR)-octahydro-2H-quinolizin-1-yl)methyl)amino)pyrimidine-5-carbonitrile]: under setting [1], the IC50 is less than 30 µM.

Consider `OCCOc1ccc(Nc2ncc(F)c(NC[C@@H]3CCCN4CCCC[C@H]34)n2)cc1-n1cnnn1` [Compound 138, 2-(4-((5-fluoro-4-((((1S,9aR)-octahydro-2H-quinolizin-1-yl)methyl)amino)pyrimidin-2-yl)amino)-2-(1H-tetrazol-1-yl)phenoxy)ethan-1-ol], for which the 50% inhibitory concentration (IC50) is, setting by setting: under setting [1], less than 30 µM; under setting [2], 0.0493 µM.

As for `OCCOc1ccc(Nc2ncc(Cl)c(NC[C@@H]3CCCN4CCCC[C@H]34)n2)cc1-n1cnnn1` [Compound 139, 2-(4-((5-chloro-4-((((1S,9aR)-octahydro-2H-quinolizin-1-yl)methyl)amino)pyrimidin-2-yl)amino)-2-(1H-tetrazol-1-yl)phenoxy)ethan-1-ol], the concentration for half-maximal inhibition (IC50) by setting is: under setting [1], less than 30 µM; under setting [2], 0.0175 µM.

Consider `N#Cc1cnc(Nc2ccc(OCCO)c(-n3cnnn3)c2)nc1NC[C@@H]1CCCN2CCCC[C@H]12` [Compound 140, 2-((4-(2-hydroxyethoxy)-3-(1H-tetrazol-1-yl)phenyl)amino)-4-((((1S,9aR)-octahydro-2H-quinolizin-1-yl)methyl)amino)pyrimidine-5-carbonitrile], for which the IC50 reads like this: under setting [1], less than 30 µM; under setting [2], 0.0276 µM.

In the case of `OCCOc1ccc(Nc2nccc(NC[C@@H]3CCCN4CCCC[C@H]34)n2)cc1-n1cnnn1` [Compound 141, 2-(4-((4-((((1S,9aR)-octahydro-2H-quinolizin-1-yl)methyl)amino)pyrimidin-2-yl)amino)-2-(1H-tetrazol-1-yl)phenoxy)ethan-1-ol], the IC50 is less than 30 µM under setting [1] and 3.55 µM under setting [2].

As for `C[C@H](O)COc1cc(F)c(Nc2ncc(C#N)c(NC[C@@H]3CCCN4CCCC[C@H]34)n2)cc1-n1nnn(C)c1=O` [Compound 142, 2-((2-fluoro-4-((S)-2-hydroxypropoxy)-5-(4-methyl-5-oxo-4,5-dihydro-1H-tetrazol-1-yl)phenyl)amino)-4-((((1 S,9aR)-octahydro-2H-quinolizin-1-yl)methyl)amino)pyrimidine-5-carbonitrile], the IC50 is less than 30 µM under setting [1] and 0.0662 µM under setting [2].

As to `C[C@@H](O)COc1cc(F)c(Nc2ncc(C#N)c(NC[C@@H]3CCCN4CCCC[C@H]34)n2)cc1-n1nnn(C)c1=O` [Compound 143, 2-((2-fluoro-4-((R)-2-hydroxypropoxy)-5-(4-methyl-5-oxo-4,5-dihydro-1H-tetrazol-1-yl)phenyl)amino)-4-((((1S,9aR)-octahydro-2H-quinolizin-1-yl)methyl)amino)pyrimidine-5-carbonitrile], the IC50 under setting [1] was less than 30 µM and the half-inhibitory concentration (IC50) under setting [2] amounted to 0.147 µM.

In the case of `CC(O)COc1ccc(Nc2ncc(C#N)c(NC[C@@H]3CCCN4CCCC[C@H]34)n2)cc1C#N` (stereo partly drawn) [Compound 144, 2-((3-cyano-4-(2-hydroxypropoxy)phenyl)amino)-4-((((1S,9aR)-octahydro-2H-quinolizin-1-yl)methyl)amino)pyrimidine-5-carbonitrile], the concentration for half-maximal inhibition (IC50) was less than 30 µM under setting [1] and 12.4 µM under setting [2].

In the case of `CC(O)COc1ccc(Nc2ncc(F)c(NC[C@@H]3CCCN4CCCC[C@H]34)n2)cc1C#N` (stereo partly drawn) [Compound 145, 5-((5-fluoro-4-((((1S,9aR)-octahydro-2H-quinolizin-1-yl)methyl)amino)pyrimidin-2-yl)amino)-2-(2-hydroxypropoxy)benzonitrile], the concentration for half-maximal inhibition (IC50) is less than 30 µM under setting [1] and 4.63 µM under setting [2].

`Cn1nnn(-c2cc(Nc3ncc(Cl)c(NC[C@@H]4CCCN5CCCC[C@H]45)n3)c(F)cc2O)c1=O` [Compound 146, 1-(5-((5-chloro-4-((((1S,9aR)-octahydro-2H-quinolizin-1-yl)methyl)amino)pyrimidin-2-yl)amino)-4-fluoro-2-hydroxyphenyl)-4-methyl-1,4-dihydro-5H-tetrazol-5-one]: the half-maximal inhibitory concentration (IC50) reads like this: under setting [1], less than 30 µM; under setting [2], 1.98 µM.

Turning to `Cn1nnn(-c2cc(Nc3ncc(F)c(NC[C@@H]4CCCN5CCCC[C@H]45)n3)c(F)cc2O)c1=O` [Compound 147, 1-(5-((5-fluoro-4-((((1S,9aR)-octahydro-2H-quinolizin-1-yl)methyl)amino)pyrimidin-2-yl)amino)-4-fluoro-2-hydroxyphenyl)-4-methyl-1,4-dihydro-5H-tetrazol-5-one], the half-maximal inhibitory concentration (IC50) was less than 30 µM under setting [1] and 5.06 µM under setting [2].

On to `Cn1nnn(-c2cc(Nc3ncc(F)c(NC[C@@H]4CCCN5CCCC[C@H]45)n3)c(F)cc2OC(C)(C)CO)c1=O` [Compound 148, 1-(4-fluoro-5-((5-fluoro-4-((((1S,9aR)-octahydro-2H-quinolizin-1-yl)methyl)amino)pyrimidin-2-yl)amino)-2-((1-hydroxy-2-methylpropan-2-yl)oxy)phenyl)-4-methyl-1,4-dihydro-5H-tetrazol-5-one], for which the half-maximal inhibitory concentration (IC50) by setting is: under setting [1], less than 30 µM; under setting [2], 1.59 µM.

`C[C@H](O)COc1cc(F)c(Nc2ncc(F)c(NC[C@@H]3CCCN4CCCC[C@H]34)n2)cc1-n1nnn(C)c1=O` [Compound 149, 1-(4-fluoro-5-((5-fluoro-4-((((1S,9aR)-octahydro-2H-quinolizin-1-yl)methyl)amino)pyrimidin-2-yl)amino)-2-((S)-2-hydroxypropoxy)phenyl)-4-methyl-1,4-dihydro-5H-tetrazol-5-one]: the IC50 is less than 30 µM under setting [1] and 0.266 µM under setting [2].

Turning to `CCOC(=O)C(C)(C)Oc1cc(F)c(Nc2ncc(C#N)c(NC[C@@H]3CCCN4CCCC[C@H]34)n2)cc1-n1nnn(C)c1=O` [Compound 150, ethyl 2-(4-((5-cyano-4-((((1S,9aR)-octahydro-2H-quinolizin-1-yl)methyl)amino)pyrimidin-2-yl)amino)-5-fluoro-2-(4-methyl-5-oxo-4,5-dihydro-1H-tetrazol-1-yl)phenoxy)-2-methylpropanoate], the 50% inhibitory concentration (IC50) reads like this: under setting [1], less than 30 µM; under setting [2], 1.14 µM.

Turning to `Cn1nnn(-c2cc(Nc3ncc(C#N)c(NC[C@@H]4CCCN5CCCC[C@H]45)n3)c(F)cc2OC(C)(C)CO)c1=O` [Compound 151, 2-((2-fluoro-4-((1-hydroxy-2-methylpropan-2-yl)oxy)-5-(4-methyl-5-oxo-4,5-dihydro-1H-tetrazol-1-yl)phenyl)amino)-4-((((1S,9aR)-octahydro-2H-quinolizin-1-yl)methyl)amino)pyrimidine-5-carbonitrile], the IC50 by setting is: under setting [1], less than 30 µM; under setting [2], 0.305 µM.

Turning to `C[C@H](O)COc1cc(F)c(Nc2ncc(Cl)c(NC[C@@H]3CCCN4CCCC[C@H]34)n2)cc1-n1nnn(C)c1=O` [Compound 152, 1-(5-((5-chloro-4-((((1S,9aR)-octahydro-2H-quinolizin-1-yl)methyl)amino)pyrimidin-2-yl)amino)-4-fluoro-2-((S)-2-hydroxypropoxy)phenyl)-4-methyl-1,4-dihydro-5H-tetrazol-5-one], the half-inhibitory concentration (IC50) by setting is: under setting [1], less than 30 µM; under setting [2], 0.0898 µM.

As to `Cn1nnn(-c2cc(Nc3ncc(Cl)c(NC[C@@H]4CCCN5CCCC[C@H]45)n3)c(F)cc2OC(C)(C)CO)c1=O` [Compound 153, 1-(5-((5-chloro-4-((((1S,9aR)-octahydro-2H-quinolizin-1-yl)methyl)amino)pyrimidin-2-yl)amino)-4-fluoro-2-((1-hydroxy-2-methylpropan-2-yl)oxy)phenyl)-4-methyl-1,4-dihydro-5H-tetrazol-5-one], the concentration for half-maximal inhibition (IC50) runs as follows: under setting [1], less than 30 µM; under setting [2], 0.832 µM.

As for `Cn1nnn(-c2cc(Nc3ncc(F)c(NC[C@@H]4CCCN5CCCC[C@H]45)n3)c(F)cc2OCC(C)(C)O)c1=O` [Compound 154, 1-(4-fluoro-5-((5-fluoro-4-((((1S,9aR)-octahydro-2H-quinolizin-1-yl)methyl)amino)pyrimidin-2-yl)amino)-2-(2-hydroxy-2-methylpropoxy)phenyl)-4-methyl-1,4-dihydro-5H-tetrazol-5-one], the concentration for half-maximal inhibition (IC50) under setting [1] is less than 30 µM and the half-maximal inhibitory concentration (IC50) under setting [2] came to 0.188 µM.

As for `Cn1nnn(-c2cc(Nc3ncc(Cl)c(NC[C@@H]4CCCN5CCCC[C@H]45)n3)c(F)cc2OCC(C)(C)O)c1=O` [Compound 155, 1-(5-((5-chloro-4-((((1S,9aR)-octahydro-2H-quinolizin-1-yl)methyl)amino)pyrimidin-2-yl)amino)-4-fluoro-2-(2-hydroxy-2-methylpropoxy)phenyl)-4-methyl-1,4-dihydro-5H-tetrazol-5-one], the concentration for half-maximal inhibition (IC50) by setting is: under setting [1], less than 30 µM; under setting [2], 0.136 µM.
